The values below come from ChEMBL document CHEMBL3596107, “Design, synthesis and evaluation of a series of acyclic fleximer nucleoside analogues with anti-coronavirus activity” (Bioorg Med Chem Lett, 2015).

A short description of data set [1]: Antiviral activity against Human coronavirus NL63 infected in African green monkey Vero118 cells assessed as inhibition of virus-induced cytopathic effect after 5 days by microscopic analysis. It is filed as functional. The settings on record: Human coronavirus NL63, 120 h.
Data set [2] is described as follows: Cytotoxicity against mock-infected African green monkey Vero118 cells assessed as inhibition of cell survival after 5 days by microscopic analysis. It is filed as cell-based. The settings on record: chlorocebus sabaeus; for CC50: 120 h.
For data set [3], the system named is Middle East respiratory syndrome-related coronavirus. The data set is described as follows: Antiviral activity against MERS-CoV EMC/2012 infected in human HuH7 cells assessed as inhibition of virus-induced cytopathic effect after 2 days by CellTiter 96 AQueous Non-Radioactive Cell Proliferation Assay. The conditions noted are these: EMC/2012, Huh-7, 48 h. It is filed as functional, cell-based.

Data set [4] can be described thus: Cytotoxicity against mock-infected human HuH7 cells assessed as inhibition of cell survival after 2 days by CellTiter 96 AQueous Non-Radioactive Cell Proliferation Assay. It is filed as cell-based. The conditions noted are these: huh-7, 48 h.
Data set [5] relates to Middle East respiratory syndrome-related coronavirus. Briefly: Antiviral activity against MERS-CoV EMC/2012 infected in African green monkey Vero cells assessed as inhibition of virus-induced cytopathic effect after 3 days by CellTiter 96 AQueous Non-Radioactive Cell Proliferation Assay. It is filed as functional, cell-based. The settings on record: EMC/2012, Vero, 72 h.
In another data set the test system is Vero. The data set is described as follows: Cytotoxicity against mock-infected African green monkey Vero cells assessed as inhibition of cell survival after 3 days by CellTiter 96 AQueous Non-Radioactive Cell Proliferation Assay. It is filed as cell-based. The conditions noted are these: chlorocebus sabaeus, 72 h.
Data set [6] can be described thus: Antiviral activity against SARS-CoV Frankfurt 1 infected in African green monkey Vero E6 cells assessed as inhibition of virus-induced cytopathic effect after 3 days by CellTiter 96 AQueous Non-Radioactive Cell Proliferation Assay. It is filed as functional, cell-based, SARS coronavirus Frankfurt 1.
The nature of data set [7]: Cytotoxicity against mock-infected African green monkey Vero E6 cells assessed as inhibition of cell survival after 3 days by CellTiter 96 AQueous Non-Radioactive Cell Proliferation Assay. It is filed as cell-based. The conditions noted are these: chlorocebus sabaeus, vero c1008, 72 h.
The test system of the next data set is SARS-CoV. The data set is described as follows: Antiviral activity against SARS-CoV assessed as inhibition of viral replication. It is filed as functional, Severe acute respiratory syndrome-related coronavirus.

With `OCCOCn1cnc(-c2cnc(O)nc2O)c1`, the EC50 in data set [1] was determined as 92 µM. Further, the CC50 in [2] is over 200 µM.

On to `COc1nc(N)ncc1-c1cn(COCCO)cn1`, for which the EC50 is 8.8 µM in [1], 27 µM in data set [3], 23 µM in data set [5] and “Not Active” in data set [6] (vero e6). For the same compound, the CC50 in [2] turned out to be 120 µM; in data set [4], 149 µM; in the data set with Vero, 71 µM; in data set [7], 138 µM.

On to `Nc1ncc(-c2cn(COCCO)cn2)c(O)n1`, for which the EC50 in data set [1] is over 200 µM. For the same compound, the CC50 in data set [2] was over 200 µM.

In the case of `Nc1nc2c(ncn2COCCO)c(=O)[nH]1` [ACYCLOVIR], the EC50 in data set [1] was over 100 µM; in [3], over 1000 µM; in data set [5], over 1000 µM; in data set [6] (Severe acute respiratory syndrome-related coronavirus, Vero C1008, 72 h, read-out: EC50) it was over 1000 µM. For the same compound, in [2] (mock-infected Vero118 cells), the CC50 at 120 h is over 100 µM. Moreover, the CC50 (in data set [4]; with Vero; in data set [7]) was over 1000 µM each time.

As to `NC(=O)c1ncn([C@@H]2O[C@H](CO)[C@@H](O)[C@H]2O)n1` [RIBAVIRIN], the INH with SARS-CoV turned out to be 500 µg/mL.
